Experiments:
[1] = target: Beta-3 adrenergic receptor (Homo sapiens, UniProt P13945); test: DRUGMATRIX: Adrenergic beta3 radioligand binding (ligand: [125I] Cyanopindolol); assay type: cell membranes, HEK293, Membrane; conditions: hek293; Not Active = under 50% inhibition at 10 µM
[2] = DRUGMATRIX: beta-Lactamase enzyme inhibition (substrate: Nitrocefin); parameters: species or system Bacillus cereus; conditions: Not Active = under 50% inhibition at 10 µM
[3] = DRUGMATRIX: Calcium Channel Type L, Dihydropyridine radioligand binding (ligand: [3H] Nitrendipine); assay type: cell membranes, Rattus norvegicus, Wistar, Cerebral cortex, Membrane; conditions: Not Active = under 50% inhibition at 10 µM
[4] = DRUGMATRIX: Glutamate, NMDA, Phencyclidine radioligand binding (ligand: [3H] TCP); assay type: cell membranes, Rattus norvegicus, Wistar, Cerebral cortex, Membrane; conditions: Not Active = under 50% inhibition at 10 µM
[5] = DRUGMATRIX: Leukotriene, BLT (LTB4) radioligand binding (ligand: [3H]LTB4); assay type: cell membranes, Membrane; conditions: u-937; Not Active = under 50% inhibition at 10 µM
[6] = DRUGMATRIX: Nicotinic Acetylcholine radioligand binding (ligand: [125I] Epibatidine); assay type: cell membranes, Membrane; conditions: imr-32; Not Active = under 50% inhibition at 10 µM

Beta-3 adrenergic receptor, sequence (P13945 whole entry): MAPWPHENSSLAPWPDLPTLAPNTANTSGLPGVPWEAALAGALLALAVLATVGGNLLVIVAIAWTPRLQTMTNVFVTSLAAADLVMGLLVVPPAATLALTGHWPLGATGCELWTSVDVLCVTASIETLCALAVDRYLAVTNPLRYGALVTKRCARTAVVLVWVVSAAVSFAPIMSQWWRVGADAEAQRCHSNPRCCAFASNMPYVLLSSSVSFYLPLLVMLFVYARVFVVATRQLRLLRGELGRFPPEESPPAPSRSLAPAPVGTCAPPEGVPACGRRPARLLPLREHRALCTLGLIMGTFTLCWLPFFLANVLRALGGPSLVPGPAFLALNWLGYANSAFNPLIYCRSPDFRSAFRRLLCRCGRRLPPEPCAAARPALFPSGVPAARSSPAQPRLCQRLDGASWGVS

Cc1oncc1C(=O)Nc1ccc(C(F)(F)F)cc1 [LEFLUNOMIDE]
Not Active: IC50 [1] | IC50 [2] | Ki [2] | IC50 [3] | Ki [3] | IC50 [4] | Ki [4] | IC50 [5] | Ki [5] | IC50 [6] | Ki [6]

Nc1nc2ccc(OC(F)(F)F)cc2s1 [RILUZOLE]
Not Active: IC50 [1] | IC50 [2] | Ki [2] | IC50 [3] | Ki [3] | IC50 [4] | Ki [4] | IC50 [5] | Ki [5] | IC50 [6] | Ki [6]

Cc1c(C)c2c(c(C)c1O)CCC(C)(COc1ccc(CC3SC(=O)NC3=O)cc1)O2 (stereo not drawn) [TROGLITAZONE]
Not Active: IC50 [1] | IC50 [2] | Ki [2] | IC50 [3] | Ki [3] | IC50 [4] | Ki [4] | IC50 [5] | Ki [5] | IC50 [6] | Ki [6]

CCCOc1ccccc1-c1nc2nn[nH]c2c(=O)[nH]1 [ZAPRINAST]
Not Active: IC50 [1] | IC50 [2] | Ki [2] | IC50 [3] | Ki [3] | IC50 [4] | Ki [4] | IC50 [5] | Ki [5] | IC50 [6] | Ki [6]

CC[C@]1(O)C[C@H]2CN(CCc3c([nH]c4ccccc34)[C@@](C(=O)OC)(c3cc4c(cc3OC)N(C=O)[C@H]3[C@@](O)(C(=O)OC)[C@H](OC(C)=O)[C@]5(CC)C=CCN6CC[C@]43[C@@H]65)C2)C1 [VINCRISTINE]
Not Active: IC50 [1] | IC50 [2] | Ki [2] | IC50 [3] | Ki [3] | IC50 [4] | Ki [4] | IC50 [5] | Ki [5] | IC50 [6] | Ki [6]

COc1c(C)c2c(c(O)c1C/C=C(\C)CCC(=O)O)C(=O)OC2 [MYCOPHENOLIC ACID]
Not Active: IC50 [1] | IC50 [2] | Ki [2] | IC50 [3] | Ki [3] | IC50 [4] | Ki [4] | IC50 [5] | Ki [5] | IC50 [6] | Ki [6]

CSc1ccc(/C=C2/C(C)=C(CC(=O)O)c3cc(F)ccc32)cc1 [SULINDAC SULFIDE]
Not Active: IC50 [1] | IC50 [2] | Ki [2] | IC50 [3] | Ki [3] | IC50 [4] | Ki [4] | IC50 [5] | Ki [5] | IC50 [6] | Ki [6]

O=NN(CCCl)C(=O)NC1CCCCC1 [LOMUSTINE]
Not Active: IC50 [1] | IC50 [2] | Ki [2] | IC50 [3] | Ki [3] | IC50 [4] | Ki [4] | IC50 [5] | Ki [5] | IC50 [6] | Ki [6]
